In patent US10827753B2, “Compositions and methods for controlling nematodes” (Monsanto Technology LLC, priority 2007, dated 2020):
Read-outs that look alike come from different tables or passages of the source. Marks after values point to notes of the source that are not given here.

What was measured:
[1] = test system: Meloidogyne incognita; assay: M. incognita miniaturized greenhouse assay on cucumber seedlings (root galling); format: in vivo; set-up: key to 1 ppm gall ratings / 1 ppm gall rating: mean of 3 gall ratings: 0=0-5%, 1=6-20%, 2=21-50%, 3=51-100% root galled; conditions: for 8 ppm gall ratings: average of triplicate gall rating, scale 0-3 (% root mass galled)
Experimental: The test compound is dissolved in an acetone solution and added to water. A sprouted cucumber seedling is placed into a vial with dry sand and the water-chemical solution is added immediately. Twenty four hours later Meloidogyne incognita eggs are added to the vials and 10 to 12 days later the roots are evaluated for nematode galling.
Cucumber seeds are sprouted for 3 days in moist paper towels. Acceptable sprouts should be 3 to 4 cm long with several lateral roots just emerging. Stock solutions of chemistry are prepared in a mixture of acetone and Triton X100 (412 mg in 500 mL) to a final concentration of 5 mg/mL. The chemical stock solution is then added to 10 mL deionized water plus 0.015% Triton X100 and mixed thoroughly. This is enough to test each condition in triplicate. Ten mL dry sand is added to each vial. At this time the solubility of the chemistry is visually determined and recorded as either ppt (large precipitates) or cloudy (fine precipitates). Seedlings are planted by tilting the vial and laying the seedling in the correct orientation so that the cotyledons are just above the sand and then tilting back to cover the radicles with sand. 3.3 ml water/chemical mix is added to each vial and the vials placed in racks under fluorescent light banks. The vials are inoculated two days after planting by adding 500 vermiform M. incognita eggs to each vial in 50 uL of deionized or spring water. The vials are then kept under the fluorescent lamps at ambient room temperature and watered as needed with 1 mL deionized water, usually twice during duration of test. Harvest of the cucumber plants is done 10 to 12 days after inoculation by washing sand off the roots. A root gall rating and visual phytotoxicity rating is assigned using the following scales: Gall rating scale (Gall: % root mass galled): 0=0-5%; 1=6-20%; 2=21-50%; and 3=51-100%. The average of the triplicate gall rating is then calculated: green=0.00-0.33 (no galls); yellow=0.67-1.33 (mild galling); orange=1.67-2.33 (moderate galling); red=2.67-3.00 (severe galling). Visual phytotoxicity scale is also assigned (Vis. tox; visual reduction in root mass compared to the control): rs1=mild stunting; rs2=moderate stunting; rs3=severe stunting.

[2] = test system: root knot nematode; assay: Pre-plant incorporated (PPI) greenhouse test of root knot nematode on cucumber plants; format: in vivo, Meloidogyne incognita; conditions: Meloidogyne incognita, read-out: percent control (galling reduction) relative to the control blank treatment; for pest or weed control at 4000 g/ha: 4 kg/ha rate; for pest or weed control at 8000 g/ha: 8 ka/ha rate; for pest or weed control at 2000 g/ha: 2 kg/ha rate
Text: The PPI test examines the effect of pre-incorporation of compounds in soil and longer aging to simulate in furrow methods of nematicide application in the field. The PPI test exposes compounds to a higher volume of soil and drying which can result in more severe soil binding. Compounds are also aged for longer periods which can lead to more extensive biotic and abiotic degradation further limiting activity.
The chemically treated soil (sandy soil mix) for all treatment days (e.g., 7 days, 14 days, 21 days) treatments is potted into their appropriate pots. On the same day the 7 day treatment pots are seeded. One week later eggs are applied and 14 days after egg application the test is harvested. The 14 day treatments are planted 7 days after the first planting. The 14 day planting and 7 day inoculation happen on the same day. One week later the 14 day treatments are inoculated with eggs. These are harvested 14 days after the inoculation. The 21 day treatments are planted 14 days after the first planting. The 14 day inoculation and 21 day planting are done on the same day. One week later the 21 day plants are inoculated with eggs. The 7 day treatment is harvested the same day as the 21 day inoculation. Fourteen days after inoculation the 21 day plants are harvested.
For each compound a stock is prepared using 4 mg material in 4 ml of acetone. The soil is mixed by placing 80 ml of field soil and 320 ml of sand in a plastic bag and mixing well. The formulation for treatment is done by adding 2.13 ml (8 kg/ha rate), 1.06 ml (4 kg/ha rate) or 0.53 ml (2 kg/ha rate) to a vial and raising it with 10 ml in 0.05%×100. Soil is then treated by adding the entire 10 ml to the 400 ml of mix in the bag. The treated soil is immediately mixed well in the sealed bag to distribute the compound evenly. Approximately 95 ml is used to fill each 2-inch square pot up to the top with some soil compression and flattening. For each compound and for the control treatments 4 pots are filled. All pots are watered until moist but with no run-out through the bottom.
The PPI test simulates 8, 4 and 2 kg/ha rates incorporated 15 cm deep in the field and is equivalent to the 2, 1 and 0.5 kg/ha drench application rates in the standard 2-inch pot cucumber greenhouse assay.

[3] = test system: root knot nematode (RKN); assay: RKN greenhouse soil assay on cucumber plants; format: in vivo, Meloidogyne incognita
Text: Cucumber seeds are planted in a sandy soil mixture in two inch square plastic pots. When the cotyledons are fully opened and just as the first leaf begins to emerge, usually 7 days after planting, chemistry for the 7 day treatment is applied. One week later the chemistry for the 0 day treatment is applied. Separate plants are used for each application. The plants are generally in the 1-2 leaf stage now. At least four hours after the chemistry application the pots are inoculated with root knot nematode (RKN) eggs. Plants are rated for galling 14 days after the egg inoculation.
One milligram of chemistry per four pots is equal to one kilogram per hectare of chemical. A standard test uses four replications. For rates above 2 kg/ha, the desired amount of chemical is weighed into a 30 ml vial (example: 8 kg/ha rate=8 mg chemical in 30 ml vial). The chemical is dissolved in 2 ml of appropriate solvent, generally acetone. For rates below 2 kg/ha, 2 milligrams of chemistry is weighed into the vial and dissolved in 2 ml of the solvent. The appropriate amount of chemical concentrate is then pipetted into a separate 30 ml vial and solvent is added to bring the volume to 2 ml (example 0.5 kg/ha=0.5 ml of concentrate+1.5 ml solvent). Each dissolved concentrate is then brought to a total of 20 milliliters using 0.05% Triton X 100 surfactant solution.
Pots to be treated are moist but not saturated. To each of four pots, five milliliters of the appropriate chemical solution is pipetted to the media surface making sure to avoid contact with the base of the plant. Immediately following chemical application, using a mist nozzle, the pot surface is wetted sufficiently to saturate the pot watering in the chemistry. The chemical application is done in the morning.
Nematode eggs, either SCN or RKN, are added to distilled water to create a concentration of 1000 vermiform eggs […]. At least four hours after chemical treatment the eggs are applied to the treated pots plus non-treated check plants. A small hole about 1 cm deep is punched into the pot surface. One milliliter of the nematode egg slurry is pipetted into the hole. Immediately afterwards the hole is gently covered. Watering of the test plants is then restricted to only water as needed to prevent wilt for a period of 24 hours. After the 24 hour restricted watering, normal sub-irrigation watering is done for the duration of the test.

[4] = test system: C. elegans; assay: Three day C. elegans well assay; format: in vivo
Experimental: Various compounds were tested for nematicidal activity against C. elegans using contact assays in wells. The assays were performed as described below. The test compounds were solubilized in DMSO at 10 mg/ml to create 100× stock solutions. A dilution series was created by diluting the stock solution with DMSO. For each well assay 4 ul of the appropriate dilution is added to a well of a test plate. A 400 ul aliquot of bacterial stock (in M9 buffer with ampicillin and nystatin) are added to each well of the test plate. Worms are added and the test plate placed on a rotary shaker and held at 20° C. Worms are examined and scored at 4 hrs, 24 hrs, 48 hrs and 72 hours. L1 worms and L4 worms were used in the assay. L1 worms are prepared by plating eggs on a plate without a bacterial feeding layer. The eggs hatch and arrest at the L1 stage. This L1 stage population is then used to create a stock for the experiments. To create an L4 stage stock a small number of worms are taken from an overgrown and starved plate of worms and seeded on a plate with a bacterial feeder layer. A 25 ul aliquot of worms is added to each well in the assay.

[5] = test system: Meloidogyne incognita; assay: Summer field evaluation of pre-plant incorporated compounds on squash; format: in vivo
Experimental: Test plots of 33 cm diameter holes were bored 41 cm deep into clay soil and filled with a mixture of 80% sand and 20% silt loam soil. Technical compound for each treatment was dissolved in 50 ml acetone containing 250 ul of Triton X-100 surfactant. This solution was added to 450 ml water and poured onto 95 liters of sand/soil mixture in a rotating drum mixer. While continuing to rotate the mixing drum 66 grams of chopped, galled, tomato roots was added and thoroughly distributed. The treated soil was sufficient to fill the top 15 cm of each of the 6 replicate plots, thus simulating a PPI treatment. The plots were then watered lightly and a mixture of M. incognita eggs and larvae were injected 5 cm deep at 5 points within the plot (100 k eggs/larvae in 10 ml per plot). Three-week old squash (cv. Liberator III) with 1 fully expanded true leaf was planted 4 days after soil treatment, one per plot.

[6] = 168 h, seven day pre-plant incorporated
[7] = Acetone 1 mg/kg, standard 10% acetone in 0.05% Triton X 100 formulation
[8] = Radex 1 mg/kg, emulsifiable concentrate, 6.25% active ingredient by weight
[9] = fourteen day pre-plant incorporated, test a

SMILES | 8 ppm gall ratings [1] | 1 ppm gall ratings ([1]; Table 1B test a) | 1 ppm gall ratings ([1]; Table 1B test b) | percent control (galling reduction) relative to the appropriate control blank treatment [3, 7] | percent control (galling reduction) relative to the appropriate control blank treatment [3, 8] | pest or weed control at 2000 g/ha [2, 9] | pest or weed control at 4000 g/ha [2, 9] | pest or weed control at 8000 g/ha [2, 9] | EC50 L4 1D ([4]; L4 larvae, one day of exposure) | other results
FC(F)(F)c1ccc(-c2noc(-c3cccs3)n2)cc1 [compound 5213] | 0.33 | – | – | – | – | – | – | – | – | pest or weed control at 4000 g/ha [2, 6]: 85%; pest or weed control at 8000 g/ha [2, 6]: 98%
Fc1ccc(-c2noc(-c3cccs3)n2)cc1 [compound 5479] | 0 (0=0-5%) | 1 (1=6-20%) | 0.67 | 91% | 96% | 71% | 89% | 100% | – | –
Cc1cc(F)ccc1-c1noc(-c2cccs2)n1 [compound 5845] | – | – | – | – | – | – | – | – | no | EC50 L1 1D ([4]; L1 larvae, one day of exposure): no
Cc1cc(Cl)ccc1-c1noc(-c2cccs2)n1 [compound 5822] | – | – | – | – | – | – | – | – | no | –
Cc1cc(Br)ccc1-c1noc(-c2cccs2)n1 [compound 5824] | – | – | – | – | – | – | – | – | no | EC50 L4 2D ([4]; L4 larvae, two days of exposure): no
Cc1cc(Br)ccc1-c1noc(-c2ccco2)n1 [compound 5825] | – | 0 (0=0-5%) | 0.33 | 96% | 96% | 69% | 98% | 96% | – | percent control (galling reduction) relative to the control blank treatment ([3]; 0 day treatment, 0.05 kg/ha, test a): 53^a percent; percent control (galling reduction) relative to the control blank treatment ([3]; 0 day treatment, 0.1 kg/ha, test a): 50^a percent; percent control (galling reduction) relative to the control blank treatment ([3]; 0 day treatment, 0.25 kg/ha, test a): 89%; percent control (galling reduction) relative to the control blank treatment ([3]; 0 day treatment, 0.25 kg/ha, test b): 84%; percent control (galling reduction) relative to the control blank treatment ([3]; 0 day treatment, 1 kg/ha, test b): — 94^b percent; percent control (galling reduction) relative to the control blank treatment ([3]; 7 day treatment, 1 kg/ha, test b): — 97^b percent
Brc1ccc(-c2noc(-c3ccco3)n2)cc1 [compound 5467] | 0 (0=0-5%) | 1.67 | 1.33 | 73% | 88% | 71% | 76% | 100% | – | –
Clc1ccc(-c2noc(-c3cccs3)n2)cc1 [compound 5527] | 0.67 | 1.67 | 1 (1=6-20%) | 91% | 80% | 57% | 90% | 96% | – | –
Brc1ccc(-c2noc(-c3cccs3)n2)cc1 [compound 1846] | 0 (0=0-5%) | 1.33 | 0.67 | 88% | 86% | – | – | – | – | –
Clc1ccc(-c2noc(-c3ccco3)n2)cc1 [compound 5523] | 0 (0=0-5%) | 1 (1=6-20%) | 1.33 | 86% | 86% | 59% | 87% | 99% | – | 0-3 vigor 16 DAP ([5]; 4 kg (kg/ha) PPI, squash): 3.0; 0-3 vigor 21 DAP ([5]; 4 kg (kg/ha) PPI, squash): 3.0; feeder root (3 = ave) 31 DAP ([5]; 4 kg (kg/ha) PPI, squash): 3.0; gall % 31 DAP ([5]; 4 kg (kg/ha) PPI, squash): 26%; root wgt (g) 31 DAP ([5]; 4 kg (kg/ha) PPI, squash): 26.3 g; top wgt (lbs) 31 DAP ([5]; 4 kg (kg/ha) PPI, squash): 1.31 lbs; total fruit (lbs) ([5]; 4 kg (kg/ha) PPI, squash): 1.24 lbs; control of M. incognita (in words) ([5]; PPI application at 4 kg/ha): significant control
